Test: Solubility description
Assay type: physicochemical
Conditions: for solubility in water: water (and aqueous solutions)

solubility in acetone (acetone) | solubility in acetonitrile (acetonitrile) | solubility in ethanol (ethanol) | solubility in ethyl acetate (ethyl acetate) | solubility in methanol (methanol) | solubility in water | SMILES
sparingly soluble | slightly soluble | soluble | slightly soluble | soluble | poorly soluble | C[C@]12CC[C@@H]3c4ccc(O)cc4CC[C@H]3[C@@H]1[C@@H](O)[C@@H](O)C2O (stereo in doubt) [Estetrol monohydrate, estra-1,3,5 (10)-triene-3,15α, 16α, 17α-tetrol monohydrate]
 |  |  |  |  | slight solubility | C[C@]12CCC(=O)C=C1[C@@H]1C[C@@H]1[C@H]1[C@@H]3[C@@H]4C[C@@H]4[C@@]4(CCC(=O)O4)[C@@]3(C)CC[C@@H]12 [Drospirenone, reference compound]
